Experiments:
Format in all cases: cell-based, human
[1] = system: stable SSP1-overexpressing HepG2 cell; test: ApoB lipoprotein secretion in stable SSP1-overexpressing HepG2 cells (sandwich EIA); conditions: SSP1 stable expression HepG2 cell strains vs parent HepG2, 24 hours, 5% LPDS + oleate (BSA complex)
Procedure: SSP1 gene was subcloned into pcDNA3.1(+)-myc vector (Invitrogen), and the thus obtained expression plasmid for eucaryotic cell having the C-terminal Myc-tag was transfected into HepG2 cells by a lipofection method, and these cells were cultured in the presence of 500 ug/ml G418 to obtain G418-resistant strains. From these strains, 4 stable cell strains highly expressing SSP1 mRNA were obtained using the quantification, of expression amount of SSP1 mRNA by TaqMan PCR. A gene encoding amino acid no. 33-273 of SSP1 protein was subcloned into pET 21(+) vector (Novagen), and using the SSP1 partial protein produced in Escherichia coli as an antigen, a polyclonal antibody was prepared according to an ordinary method. The amino acid sequence of the antigen protein is shown by SEQ ID NO: (antigen AP-1). Using this antibody (AP-1), the expression of SSP1 protein in cell-extract of the four stable SSP1-expressing cell strains was investigated by a Western blotting method. […] For quantification of ApoB lipoprotein, a sandwich EIA method using an anti-human apoB goat polyclonal antibody and an anti-human apoB mouse monoclonal antibody was carried out. In the quantification, human LDL was used as a standard substance, and the concentration of ApoB lipoprotein secreted in the supernatant was represented as an equivalent human LDL value. […]

[2] = system: SSP1 mRNA in HepG2 cell; test: Change of SSP1 mRNA expression in treated HepG2 cells (TaqMan PCR); conditions: 24 hours in serum free D-MEM medium with the agent, 25-OH 5 μg/ml, βVLDL 100 μg-TC/ml, HPβCD 5 mM, 10% FBS
Procedure: For conducting more detailed analysis of SSP1 expression, TaqMan PCR conditions were set. The primers used were Upper Primer (SEQ ID NO: 54) and Lower Primer (SEQ ID NO: 55), and the probe used for detection was shown by SEQ ID NO: 56. In TaqMan PCR, 250 nM of Upper Primer, 250 nM of Lower Primer, 75 nM of the probe and template DNA were mixed with TaqMan Universal Mixture, and SSP1 gene was quantified by real time PCR of 40 cycle of 15 seconds at 95° C. and 60 seconds at 60° C.
After HepG2 cell was treated as shown in FIG. 7 for one day, RNA was extracted to perform a reverse transcription using oligo-dT as a primer. Then, change in the expression amount of SSP1 mRNA was analyzed using the quantification system of expression amount of SSP1 mRNA as shown in Example 6. Specifically, HepG2 cells were cultured on a 24-well plate, and incubated for 24 hours in a serum free D-MEM medium in the presence of 10% FBS (10% FBS), 5 μg/ml of 25-hydroxycholesterol (25-OH), 100 μg-TC/ml of rabbit βVLDL (βVLDL), 1 μM of Atrvastatin (ATOS), 5 mM hydroxypropyl-β-cyclodextiin (HPβCD), 10 μM progesterone (Progesterone) or 100 μM dibutyl-cyclic AMP (db-cAMP). The expression amount of SSP1 mRNA in RNA extracted from these cells was measured as a rate (%) to GAPDH mRNA measured as the internal standard.

[3] = system: SSP2 mRNA in IMR-32 cell; test: Differentiation-dependent induction of SSP2 mRNA expression in IMR-32 cells (TaqMan PCR); conditions: 10 μM BrDU, cultured for 14 days, RNA at 7 and 14 days, cells differentiated to neuron in morphology
Procedure: For conducting more detailed analysis of SSP2 expression, TaqMan PCR conditions were set. The primers used were Upper Primer (SEQ ID NO: 57) and Lower Primer (SEQ ID NO: 58), and the probe used for detection was shown by SEQ ID NO: 59. In TaqMan PCR, 250 nM of Upper Primer, 250 nM of Lower Primer, 75 nM of the probe and template DNA were mixed with TaqMan Universal Mixture, and SSP2 gene was quantified by real time PCR of 40 cycle of 15 seconds at 95° C. and 60 seconds at 60° C. IMR-32 cells were cultured overnight at […] cells/well (6 well plate), and cultured for 14 days under four different conditions of 1 mM dibutyl cycle AMP (db-cAMP), 10 μM Bromo deoxyuridine (BrDU), 1 mM db-cAMP/10 μM BrDU and no differentiation-inducing agent. RNA was extracted from cells at 7 days and 14 days, then, SSP2 mRNA was quantified by TaqMan PCR. Induction of expression of SSP2 mRNA was recognized in cells which were differentiated to neuron in terms of morphology by 10 μM BrDU (FIG. 8).

Molecule	change in the expression amount of SSP1 mRNA (rate to GAPDH mRNA) [2]	further results
CCCCCCCC/C=C\CCCCCCCC(=O)O [oleic acid]		activity to promote apoB lipoprotein secretion by addition of oleic acid [1]: disappeared
C[C@H](CCCC(C)(C)O)[C@H]1CC[C@H]2[C@@H]3CC=C4C[C@@H](O)CC[C@]4(C)[C@H]3CC[C@]12C [25OH, 25-hydroxycholesterol]	decrease	
O=c1[nH]c(=O)n([C@H]2C[C@H](O)[C@@H](CO)O2)cc1Br [BrDU, Bromo deoxyuridine]		induction of expression of SSP2 mRNA [3]: Induction
hydroxypropyl-β-cyclodextiin [HPβCD]	increase	

From patent US20030125253A1, “Novel protein, process for producing the same and use therof” (priority 2002, published 2003)
